From US20220324835A1 (Nurix Therapeutics, Inc., priority 2018, published 2022)

What was measured:
[1] = system: human T-cells with allogenic immature dendritic cells; assay: Allogenic mixed lymphocyte reaction (MLR), T-cell proliferation; assay type: cell-based; settings: 120 h, 5 days, baseline T-cells without Cbl-b inhibitor, read-out: Proliferation, fold change over baseline
Description: Cbl-b inhibitor effects on primary human T-cells were also evaluated in the context of an allogenic mixed lymphocyte reaction (MLR). Allogenic immature dendritic cells were generated under the following conditions. Peripheral blood mononuclear cells (PBMC) were obtained either: 1) by using Ficoll-Paque™ (GE Healthcare) for separation of peripheral blood hematopoietic cells from huffy coats of healthy human donors; or 2) directly from LeukoPak donations. […] Monocytes were cultured with 30 ng/mL of recombinant human GM-CSF and 20 ng/mL of recombinant human IL-4 for seven days to generate immature dendritic cells. Monocytes and T-cells were either isolated fresh from peripheral blood or thawed from frozen stocks. Human T-cells were isolated, labeled with CFSE and incubated with inhibitors as described above. […] Proliferation of the T-cells was evaluated by flow cytometry.
Readouts for the allogenic mixed lymphocyte reaction were reported as fold change over baseline. Baseline for this study was the measurement obtained from total human T-cells stimulated with allogenic immature dendritic cells, wherein the T-cells were not incubated with a Cbl-b inhibitor (Table 5). Increases in proliferation greater than 2-fold over baseline were considered a positive response (Table 5).

[2] = system: T-cells; assay: In vivo activity: CD25 expression on CD4+ or CD8+ T-cells of mice stimulated with anti-CD3 antibody; settings: 2 μg anti-CD3 antibody, 24 hours
Outline: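 C57BL/6 or BALB/c mice dosed with inhibitor (IV, IP, SC or PO, e.g. BID or TID), then stimulated with 2 μg anti-CD3 antibody. Plasma IL-2, IFNγ, TNFα at 8 h and CD25 on CD4+/CD8+ T-cells by flow cytometry at 24 h; fold change over vehicle plus anti-CD3, binned A–E.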

[3] = system: T-cell; assay: IL-2 secretion from T-cells stimulated with anti-CD3 antibody alone (Biological Example 2); assay type: cell-based; settings: primary human total T-cells, read-out: IL-2 secretion, Anti-CD3 stimulation, fold change over baseline; for fold induction at 1 µM: 1 μM compound; for fold induction at 8 µM: 8 μM compound

C[C@H](Cc1nncn1C)c1cccc(NC(=O)c2cccc(C(F)(F)F)n2)c1 [Compound 183a, (R)-N-(3-(1-(4-methyl-4H-1,2,4-triazol-3-yl)propan-2-yl)phenyl)-6-(trifluoromethyl)picolinamide]
fold induction at 3 µM [1]: < 2
fold induction at 10 µM [1]: < 2
CD4+ T-cell % CD25+ ([2]; 90 mpk IP BID): D (D indicates 1.00-1.50)
CD8+ T-cell % CD25+ ([2]; 90 mpk IP BID): D (D indicates 1.00-1.50)

Cc1cc(C(=O)Nc2cccc([C@H](C)Cc3nncn3C)c2)nc(C2CC2)n1 [Compound 195, (R)-2-cyclopropyl-6-methyl-N-(3-(1-(4-methyl-4H-1,2,4-triazol-3-yl)propan-2-yl)phenyl)pyrimidine-4-carboxamide]
fold induction at 3 µM [1]: < 2
fold induction at 10 µM [1]: 2.01 to 3
CD4+ T-cell % CD25+ ([2]; 90 mpk PO BID): D (D indicates 1.00-1.50)
CD8+ T-cell % CD25+ ([2]; 90 mpk PO BID): D (D indicates 1.00-1.50)
CD4+ T-cell % CD25+ ([2]; 135 mpk PO BID): D (D indicates 1.00-1.50)
CD8+ T-cell % CD25+ ([2]; 135 mpk PO BID): D (D indicates 1.00-1.50)
CD4+ T-cell % CD25+ ([2]; 180 mpk PO BID): C (C indicates 1.51-2.00)
CD8+ T-cell % CD25+ ([2]; 180 mpk PO BID): D (D indicates 1.00-1.50)

C[C@H](Cc1nncn1C)c1cccc(N2Cc3c(cccc3C(F)(F)F)C2=O)c1 [Compound 255a, (R)-2-(3-(1-(4-methyl-4H-1,2,4-triazol-3-yl)propan-2-yl)phenyl)-4-(trifluoromethyl)isoindolin-1-one]
fold induction at 3 µM [1]: < 2
fold induction at 10 µM [1]: < 2
CD4+ T-cell % CD25+ ([2]; 90 mpk IP BID): B (B indicates 2.01-2.50)
CD8+ T-cell % CD25+ ([2]; 90 mpk IP BID): D (D indicates 1.00-1.50)
CD4+ T-cell % CD25+ ([2]; 135 mpk PO BID): D (D indicates 1.00-1.50)
CD8+ T-cell % CD25+ ([2]; 135 mpk PO BID): E (E indicates <1.00)

Cc1cc(C(=O)Nc2cccc(C3(Cc4nncn4C)COC3)c2)nc(C2CC2)n1 [Compound 336, 2-cyclopropyl-6-methyl-N-(3-(3-((4-methyl-4H-1,2,4-triazol-3-yl)methyl)oxetan-3-yl)phenyl)pyrimidine-4-carboxamide]
fold induction at 3 µM [1]: < 2
fold induction at 10 µM [1]: > 3.01
CD4+ T-cell % CD25+ ([2]; 45 mpk PO BID): D (D indicates 1.00-1.50)
CD8+ T-cell % CD25+ ([2]; 45 mpk PO BID): D (D indicates 1.00-1.50)
CD4+ T-cell % CD25+ ([2]; 90 mpk PO BID): D (D indicates 1.00-1.50)
CD8+ T-cell % CD25+ ([2]; 90 mpk PO BID): D (D indicates 1.00-1.50)
CD4+ T-cell % CD25+ ([2]; 135 mpk PO BID): C (C indicates 1.51-2.00)
CD8+ T-cell % CD25+ ([2]; 135 mpk PO BID): D (D indicates 1.00-1.50)
CD4+ T-cell % CD25+ ([2]; 180 mpk PO BID): C (C indicates 1.51-2.00)
CD8+ T-cell % CD25+ ([2]; 180 mpk PO BID): D (D indicates 1.00-1.50)

C[C@@H](c1cc2c(c(C(F)(F)F)c1)CN(c1cccc(C3(Cc4nncn4C)COC3)c1)C2=O)N1CC[C@H](F)C1 [Compound 412, 6-((S)-1-((S)-3-fluoropyrrolidin-1-yl)ethyl)-2-(3-(3-((4-methyl-4H-1,2,4-triazol-3-yl)methyl)oxetan-3-yl)phenyl)-4-(trifluoromethyl)isoindolin-1-one]
fold induction at 3 µM [1]: > 3.01
fold induction at 10 µM [1]: > 3.01
CD4+ T-cell % CD25+ ([2]; 90 mpk PO BID): D (D indicates 1.00-1.50)
CD8+ T-cell % CD25+ ([2]; 90 mpk PO BID): D (D indicates 1.00-1.50)
CD4+ T-cell % CD25+ ([2]; 135 mpk PO BID): C (C indicates 1.51-2.00)
CD8+ T-cell % CD25+ ([2]; 135 mpk PO BID): D (D indicates 1.00-1.50)
CD4+ T-cell % CD25+ ([2]; 180 mpk PO BID): B (B indicates 2.01-2.50)
CD8+ T-cell % CD25+ ([2]; 180 mpk PO BID): D (D indicates 1.00-1.50)
fold induction at 1 µM [3]: > 0.201
fold induction at 8 µM [3]: > 0.201

C[C@H](c1cc2c(c(C(F)(F)F)c1)CN(c1cccc(C3(Cc4nncn4C)COC3)c1)C2=O)N1CC[C@H](F)C1 [Compound 413, 6-((R)-1-((S)-3-fluoropyrrolidin-1-yl)ethyl)-2-(3-(3-((4-methyl-4H-1,2,4-triazol-3-yl)methyl)oxetan-3-yl)phenyl)-4-(trifluoromethyl)isoindolin-1-one]
fold induction at 3 µM [1]: 2.01 to 3
fold induction at 10 µM [1]: > 3.01
CD4+ T-cell % CD25+ ([2]; 90 mpk PO BID): D (D indicates 1.00-1.50)
CD8+ T-cell % CD25+ ([2]; 90 mpk PO BID): D (D indicates 1.00-1.50)
CD4+ T-cell % CD25+ ([2]; 135 mpk PO BID): D (D indicates 1.00-1.50)
CD8+ T-cell % CD25+ ([2]; 135 mpk PO BID): D (D indicates 1.00-1.50)
CD4+ T-cell % CD25+ ([2]; 180 mpk PO BID): D (D indicates 1.00-1.50)
CD8+ T-cell % CD25+ ([2]; 180 mpk PO BID): D (D indicates 1.00-1.50)
fold induction at 1 µM [3]: > 0.201
fold induction at 8 µM [3]: > 0.201

Cn1cnnc1CC1(c2cccc(N3Cc4c(cc(CN5CC(F)C5)cc4C(F)(F)F)C3=O)c2)COC1 [Compound 415, 6-((3-fluoroazetidin-1-yl)methyl)-2-(3-(3-((4-methyl-4H-1,2,4-triazol-3-yl)methyl)oxetan-3-yl)phenyl)-4-(trifluoromethyl)isoindolin-1-one]
fold induction at 3 µM [1]: 2.01 to 3
fold induction at 10 µM [1]: > 3.01
CD4+ T-cell % CD25+ ([2]; 90 mpk PO BID): D (D indicates 1.00-1.50)
CD8+ T-cell % CD25+ ([2]; 90 mpk PO BID): D (D indicates 1.00-1.50)
CD4+ T-cell % CD25+ ([2]; 135 mpk PO BID): D (D indicates 1.00-1.50)
CD8+ T-cell % CD25+ ([2]; 135 mpk PO BID): E (E indicates <1.00)
CD4+ T-cell % CD25+ ([2]; 180 mpk PO BID): D (D indicates 1.00-1.50)
CD8+ T-cell % CD25+ ([2]; 180 mpk PO BID): E (E indicates <1.00)
fold induction at 1 µM [3]: 0.151 to 0.2
fold induction at 8 µM [3]: > 0.201

Cn1cnnc1CC1(c2cccc(N3Cc4c(cc(CN5CC[C@H](C#N)C5)cc4C(F)(F)F)C3=O)c2)COC1 [Compound 422, (S)-1-((2-(3-(3-((4-methyl-4H-1,2,4-triazol-3-yl)methyl)oxetan-3-yl)phenyl)-3-oxo-7-(trifluoromethyl)isoindolin-5-yl)methyl)pyrrolidine-3-carbonitrile]
fold induction at 3 µM [1]: < 2
fold induction at 10 µM [1]: 2.01 to 3
fold induction at 1 µM [3]: > 0.201
fold induction at 8 µM [3]: > 0.201

Cn1cnnc1C(F)(F)[C@](C)(F)c1cccc(N2Cc3c(cc(C(=O)N4CC[C@H](O)C4)cc3C(F)(F)F)C2=O)c1 [Compound 438, 6-((S)-3-hydroxypyrrolidine-1-carbonyl)-2-(3-((R)-1,1,2-trifluoro-1-(4-methyl-4H-1,2,4-triazol-3-yl)propan-2-yl)phenyl)-4-(trifluoromethyl)isoindolin-1-one]
fold induction at 3 µM [1]: < 2
fold induction at 10 µM [1]: < 2
fold induction at 1 µM [3]: 0.101 to 0.15
fold induction at 8 µM [3]: > 0.201

Cn1cnnc1C(F)(F)[C@](C)(F)c1cccc(N2Cc3c(cc(N4CCNCC4)cc3C(F)(F)F)C2=O)c1 [Compound 442, (R)-6-(Piperazin-1-yl)-2-(3-(1,1,2-trifluoro-1-(4-methyl-4H-1,2,4-triazol-3-yl)propan-2-yl)phenyl)-4-(trifluoromethyl)isoindolin-1-one]
fold induction at 3 µM [1]: < 2
fold induction at 10 µM [1]: < 2
fold induction at 1 µM [3]: > 0.201
fold induction at 8 µM [3]: 0.051 to 0.1

Cn1cnnc1C(F)(F)[C@](C)(F)c1cccc(N2Cc3c(cc(CN4CC[C@@H](F)C4)cc3C(F)(F)F)C2=O)c1 [Compound 450]
fold induction at 3 µM [1]: < 2
fold induction at 10 µM [1]: 2.01 to 3
fold induction at 1 µM [3]: > 0.201
fold induction at 8 µM [3]: > 0.201

COC1CN(Cc2cc3c(c(C(F)(F)F)c2)CN(c2cccc([C@@](C)(F)C(F)(F)c4nncn4C)c2)C3=O)C1 [Compound 452, (R)-6-((3-methoxyazetidin-1-yl)methyl)-2-(3-(1,1,2-trifluoro-1-(4-methyl-4H-1,2,4-triazol-3-yl)propan-2-yl)phenyl)-4-(trifluoromethyl)isoindolin-1-one]
fold induction at 3 µM [1]: < 2
fold induction at 10 µM [1]: < 2
fold induction at 1 µM [3]: 0.151 to 0.2
fold induction at 8 µM [3]: > 0.201

Cn1cnnc1C(F)(F)[C@](C)(F)c1cccc(N2Cc3c(cc(CN4CC[C@@H](C#N)C4)cc3C(F)(F)F)C2=O)c1 [Compound 455, (R)-1-((3-oxo-2-(3-((R)-1,1,2-trifluoro-1-(4-methyl-4H-1,2,4-triazol-3-yl)propan-2-yl)phenyl)-7-(trifluoromethyl)isoindolin-5-yl)methyl)pyrrolidine-3-carbonitrile]
fold induction at 3 µM [1]: < 2
fold induction at 10 µM [1]: < 2
fold induction at 1 µM [3]: 0.151 to 0.2
fold induction at 8 µM [3]: > 0.201

C[C@H](Cc1nncn1C)c1cccc(NC(=O)c2cc3cc(N4CCNCC4)ccc3cn2)c1 [Compound 472, N-{3-[(2R)-1-(4-methyl-4H-1,2,4-triazol-3-yl)propan-2-yl]phenyl}-6-(piperazin-1-yl)isoquinoline-3-carboxamide]
fold induction at 3 µM [1]: < 2
fold induction at 10 µM [1]: < 2
fold induction at 1 µM [3]: 0.101 to 0.15
fold induction at 8 µM [3]: 0.101 to 0.15

Cn1cnnc1CC1(c2cccc(NC(=O)c3cc(CN4CCC5(CC5)C4)cc(C4CC4)n3)c2)COC1 [Compound 519, 4-((5-azaspiro[2.4]heptan-5-yl)methyl)-6-cyclopropyl-N-(3-(3-((4-methyl-4H-1,2,4-triazol-3-yl)methyl)oxetan-3-yl)phenyl)picolinamide]
fold induction at 3 µM [1]: > 3.01
fold induction at 10 µM [1]: > 3.01
CD4+ T-cell % CD25+ ([2]; 45 mpk PO BID): C (C indicates 1.51-2.00)
CD8+ T-cell % CD25+ ([2]; 45 mpk PO BID): D (D indicates 1.00-1.50)
CD4+ T-cell % CD25+ ([2]; 90 mpk PO BID): A (A indicates >2.50)
CD8+ T-cell % CD25+ ([2]; 90 mpk PO BID): D (D indicates 1.00-1.50)
CD4+ T-cell % CD25+ ([2]; 180 mpk PO BID): A (A indicates >2.50)
CD8+ T-cell % CD25+ ([2]; 180 mpk PO BID): C (C indicates 1.51-2.00)
fold induction at 1 µM [3]: > 0.201
